Three molecules from PubChem BioAssay AID1745844 (Carcinogenic Potency Database (CPDB), 2022) can be followed below.

This data set relates to rodent lifetime carcinogenesis bioassay, tumor incidence TD50. Briefly: carcinogenic potency in animals, long-term in vivo studies, CPDB compilation (AID 1745844).

Where “and” joins values, the source holds several entries; their conditions need not be identical. Equal values may be shown once. Calls of active or inactive are those of the source. How the calls were made is not given here.

With `CCc1ccccc1`, the TD50 (usually the dose at which the toxic effect under study appears in half of the subjects) (mouse, strain B6C3F1, females, inhaled, site: Harderian gland, lesion: adenoma, dosed 103 weeks, study length 104 weeks) was 9070 mg/kg/day; the TD50 (mouse, strain B6C3F1, females, inhaled, site: any site (literature study), lesion: several types, types named in the paper, dosed 103 weeks, study length 104 weeks) was 4070 mg/kg/day; the TD50 (mouse, strain B6C3F1, females, inhaled, site: liver, lesion: hepatocellular adenoma + hepatoblastoma + hepatocellular carcinoma, dosed 103 weeks, study length 104 weeks) came out at 1880 mg/kg/day; the TD50 (mouse, strain B6C3F1, females, inhaled, site: liver, lesion: hepatocellular adenoma + hepatocellular carcinoma, dosed 103 weeks, study length 104 weeks) is 1880 mg/kg/day; the TD50 (mouse, strain B6C3F1, females, inhaled, site: liver, lesion: hepatocellular adenoma, dosed 103 weeks, study length 104 weeks) was determined as 2450 mg/kg/day; the TD50 (mouse, strain B6C3F1, females, inhaled, site: lung, lesion: alveolar/bronchiolar adenoma + alveolar/bronchiolar carcinoma, dosed 103 weeks, study length 104 weeks) was determined as 7950 mg/kg/day. Moreover, the TD50 (mouse, strain B6C3F1, males, inhaled, site: any site (literature study), lesion: several types, types named in the paper, dosed 103 weeks, study length 104 weeks) amounted to 2010 mg/kg/day; the TD50 (mouse, strain B6C3F1, males, inhaled, site: liver, lesion: hepatocellular adenoma + hepatoblastoma + hepatocellular carcinoma, dosed 103 weeks, study length 104 weeks) amounted to 9310 mg/kg/day; the TD50 (mouse, strain B6C3F1, males, inhaled, site: lung, lesion: alveolar/bronchiolar adenoma + alveolar/bronchiolar carcinoma, dosed 103 weeks, study length 104 weeks) was found to be 1400 mg/kg/day; the TD50 (mouse, strain B6C3F1, males, inhaled, site: lung, lesion: alveolar/bronchiolar adenoma, dosed 103 weeks, study length 104 weeks) came out at 1680 mg/kg/day; the TD50 (rat, strain Fischer 344, males, inhaled, site: adrenal medulla, lesion: pheochromocytoma benign, bilateral + pheochromocytoma, benign, dosed 104 weeks, study length 104 weeks) stood at 125 mg/kg/day; the TD50 (rat, strain Fischer 344, males, inhaled, site: adrenal medulla, lesion: pheochromocytoma benign, bilateral + pheochromocytoma, malignant + pheochromocytoma, benign, dosed 104 weeks, study length 104 weeks) turned out to be 106 mg/kg/day. Further, the TD50 by setting is: (rat, strain Fischer 344, males, inhaled, site: any site (literature study), lesion: several types, types named in the paper, dosed 104 weeks, study length 104 weeks) 53 mg/kg/day; (rat, strain Fischer 344, males, inhaled, site: kidney + testis, lesion: tubule adenoma + tubule carcinoma + interstitial-cell adenoma, bilateral + interstitial-cell adenoma, dosed 104 weeks, study length 104 weeks) 24.6 mg/kg/day; (rat, strain Fischer 344, males, inhaled, site: kidney, lesion: tubule adenoma + tubule carcinoma, dosed 104 weeks, study length 104 weeks) 147 mg/kg/day and 255 mg/kg/day; (rat, strain Fischer 344, males, inhaled, site: kidney, lesion: tubule adenoma, dosed 104 weeks, study length 104 weeks) 232 mg/kg/day and 280 mg/kg/day; (rat, strain Fischer 344, males, inhaled, site: testis, lesion: interstitial-cell adenoma, bilateral + interstitial-cell adenoma, dosed 104 weeks, study length 104 weeks) 24.8 mg/kg/day; (rat, strain Fischer 344, males, inhaled, site: testis, lesion: interstitial-cell adenoma, bilateral, dosed 104 weeks, study length 104 weeks) 23.1 mg/kg/day. Moreover, the TD50 (rat, strain Sprague-Dawley, females, by gavage, site: any site (literature study), lesion: malignant tumor, dosed 104 weeks, study length 123 weeks) was 1610 mg/kg/day; the TD50 (rat, strain Sprague-Dawley, females, by gavage, site: any site (literature study), lesion: malignant tumor, dosed 104 weeks, study length 141 weeks) is 1210 mg/kg/day; the TD50 (rat, strain Sprague-Dawley, females, by gavage, site: any site (literature study), lesion: several types, types named in the paper, dosed 104 weeks, study length 141 weeks) was 635 mg/kg/day; the TD50 (rat, strain Sprague-Dawley, females, by gavage, site: head, lesion: carcinoma, dosed 104 weeks, study length 123 weeks) is 4170 mg/kg/day; the TD50 (rat, strain Sprague-Dawley, females, by gavage, site: nasal cavity, lesion: carcinoma, dosed 104 weeks, study length 123 weeks) was found to be 18300 mg/kg/day; the TD50 (rat, strain Sprague-Dawley, females, by gavage, site: nasal cavity, lesion: esthesioneuroepithelioma, dosed 104 weeks, study length 123 weeks) is 18300 mg/kg/day. Moreover, the TD50 (rat, strain Sprague-Dawley, females, by gavage, site: oral cavity, lesion: carcinoma, dosed 104 weeks, study length 123 weeks) is 8890 mg/kg/day; the TD50 (rat, strain Sprague-Dawley, males, by gavage, site: any site (literature study), lesion: malignant tumor, dosed 104 weeks, study length 141 weeks) is 1980 mg/kg/day; the TD50 (rat, strain Sprague-Dawley, males, by gavage, site: any site (literature study), lesion: several types, types named in the paper, dosed 104 weeks, study length 141 weeks) was 1160 mg/kg/day; the TD50 (rat, strain Sprague-Dawley, males, by gavage, site: ear duct, lesion: carcinoma, dosed 104 weeks, study length 123 weeks) is 18300 mg/kg/day; the TD50 (rat, strain Sprague-Dawley, males, by gavage, site: head, lesion: carcinoma, dosed 104 weeks, study length 123 weeks) is 4350 mg/kg/day; the TD50 (rat, strain Sprague-Dawley, males, by gavage, site: nasal cavity, lesion: esthesioneuroepithelioma, dosed 104 weeks, study length 123 weeks) stood at 5990 mg/kg/day. Moreover, the TD50 (rat, strain Sprague-Dawley, males, by gavage, site: oral cavity, lesion: carcinoma, dosed 104 weeks, study length 123 weeks) is 18300 mg/kg/day.
For `CC[C@H](C)C(=O)O[C@H]1C[C@@H](C)C=C2C=C[C@H](C)[C@H](CC[C@@H]3C[C@@H](O)CC(=O)O3)[C@H]21`, the TD50 is 38400 mg/kg/day (mouse, strain Charles River CD1, females, by gavage, site: forestomach, lesion: squamous-cell carcinoma, dosed 92 weeks, study length 92 weeks); 1020 mg/kg/day (mouse, strain Charles River CD1, females, by gavage, site: forestomach, lesion: squamous-cell papilloma, dosed 92 weeks, study length 92 weeks); 2240 mg/kg/day (mouse, strain Charles River CD1, females, by gavage, site: liver, lesion: hepatocellular carcinoma, dosed 92 weeks, study length 92 weeks); 623 mg/kg/day (mouse, strain Charles River CD1, females, by gavage, site: liver, lesion: several types, types named in the paper, dosed 92 weeks, study length 92 weeks); 57400 mg/kg/day (mouse, strain Charles River CD1, females, by gavage, site: lung, lesion: adenocarcinoma, dosed 92 weeks, study length 92 weeks); 1220 mg/kg/day (mouse, strain Charles River CD1, females, by gavage, site: lung, lesion: alveolar-cell adenoma, dosed 92 weeks, study length 92 weeks). Also, the TD50 is 8550 mg/kg/day (mouse, strain Charles River CD1, males, by gavage, site: forestomach, lesion: squamous-cell papilloma, dosed 92 weeks, study length 92 weeks); 708 mg/kg/day (mouse, strain Charles River CD1, males, by gavage, site: liver, lesion: hepatocellular carcinoma, dosed 92 weeks, study length 92 weeks); 439 mg/kg/day (mouse, strain Charles River CD1, males, by gavage, site: liver, lesion: several types, types named in the paper, dosed 92 weeks, study length 92 weeks); 19900 mg/kg/day (inactive) (rat, strain Charles River CD (Sprague-Dawley), females, by gavage, site: liver, lesion: hepatocellular adenoma, dosed 105 weeks, study length 105 weeks); 2330 mg/kg/day (inactive) (rat, strain Charles River CD (Sprague-Dawley), males, by gavage, site: liver, lesion: hepatocellular carcinoma, dosed 105 weeks, study length 105 weeks). The carcinogen call (rat, strain Charles River CD (Sprague-Dawley), males, by gavage, site: liver, lesion: hepatocellular adenoma, dosed 105 weeks, study length 105 weeks) is “negative (inactive)”.
As to `CC1(C)C(=O)Nc2ccc(C3=NNC(=O)CC3)cc21`, the TD50 (rat, strain Fischer 344, females, in feed, site: adrenal medulla, lesion: pheochromocytoma, benign, dosed 104 weeks, study length 104 weeks) stood at 5.05 mg/kg/day; the TD50 (rat, strain Fischer 344, females, in feed, site: adrenal medulla, lesion: several types, types named in the paper, dosed 104 weeks, study length 104 weeks) was 4.82 mg/kg/day; the TD50 (rat, strain Fischer 344, males, in feed, site: adrenal medulla, lesion: pheochromocytoma, benign, dosed 95 weeks, study length 95 weeks) amounted to 1.38 mg/kg/day; the TD50 (rat, strain Fischer 344, males, in feed, site: adrenal medulla, lesion: pheochromocytoma, malignant, dosed 95 weeks, study length 95 weeks) turned out to be 23.8 mg/kg/day; the TD50 (rat, strain Fischer 344, males, in feed, site: adrenal medulla, lesion: several types, types named in the paper, dosed 95 weeks, study length 95 weeks) is 1.27 mg/kg/day.
